Assay results taken from patent publication US9975903B2, “Condensed heterocyclic compound” (Takeda Pharmaceutical Company Limited, priority 2014, dated 2018).

How the values were obtained:
[1] = target: T1, Human recombinant enteropeptidase (Homo sapiens, UniProt P98073); assay: Human enteropeptidase inhibitory activity (Test Example 1); type: biochemical; conditions: 3.3 μM test compound, inhibition rate from fluorescence intensity at 2 hours after the start of the reaction; for inhibition at 3.3 µM: read-out: 3.3 μM Inhibition
T1 construct: purchased ITSI-Biosciences LLC #REN-260
T1 sequence (P98073 whole entry): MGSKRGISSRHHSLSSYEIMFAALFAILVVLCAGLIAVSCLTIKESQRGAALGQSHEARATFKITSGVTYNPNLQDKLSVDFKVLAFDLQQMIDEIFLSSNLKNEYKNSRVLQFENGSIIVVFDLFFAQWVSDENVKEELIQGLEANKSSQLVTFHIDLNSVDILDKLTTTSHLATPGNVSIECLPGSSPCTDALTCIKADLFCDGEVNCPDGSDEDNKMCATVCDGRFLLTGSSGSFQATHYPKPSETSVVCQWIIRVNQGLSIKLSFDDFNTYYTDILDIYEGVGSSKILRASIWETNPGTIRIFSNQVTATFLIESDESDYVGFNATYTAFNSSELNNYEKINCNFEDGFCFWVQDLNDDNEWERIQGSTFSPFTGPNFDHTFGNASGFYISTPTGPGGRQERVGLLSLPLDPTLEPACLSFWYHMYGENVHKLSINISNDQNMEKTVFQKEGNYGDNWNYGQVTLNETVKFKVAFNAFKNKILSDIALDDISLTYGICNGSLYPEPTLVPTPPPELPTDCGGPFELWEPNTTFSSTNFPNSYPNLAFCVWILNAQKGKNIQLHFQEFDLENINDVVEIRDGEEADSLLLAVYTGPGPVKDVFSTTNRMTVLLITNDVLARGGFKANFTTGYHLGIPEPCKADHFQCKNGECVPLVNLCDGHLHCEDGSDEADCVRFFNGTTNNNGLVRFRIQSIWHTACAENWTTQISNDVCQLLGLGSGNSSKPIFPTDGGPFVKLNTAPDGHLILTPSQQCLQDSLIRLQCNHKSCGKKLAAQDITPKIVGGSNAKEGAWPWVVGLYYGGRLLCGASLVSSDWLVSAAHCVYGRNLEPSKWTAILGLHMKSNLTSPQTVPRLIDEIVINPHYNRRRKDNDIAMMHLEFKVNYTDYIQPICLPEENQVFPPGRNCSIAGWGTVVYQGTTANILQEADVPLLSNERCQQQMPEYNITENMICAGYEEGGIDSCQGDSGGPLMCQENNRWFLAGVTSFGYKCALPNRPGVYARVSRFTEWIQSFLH
Outline: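 Recombinant human enteropeptidase in 50 mM Tricine pH 8.0, 0.01% Tween 20, 10 mM CaCl2, with a 5FAM/CPQ2-quenched peptide substrate (2.1 μM solution before mixing). Compound came from 1 mM DMSO stock diluted 100-fold in buffer. Fluorescence (ex 485/em 535 nm) at 2 h gave % inhibition versus no-compound and no-enzyme controls.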

[2] = system: Diet-induced obesity (DIO) mice; assay: Anti-obesity effect test using DIO mouse (Test Example 3); type: in vivo; conditions: male, 32-week old, average ± standard deviation, six mice
Protocol: Diet-induced obesity (DIO) mice (D12079B diet, male, 32-week old) were orally administered with a 0.5% methyl cellulose suspension containing a test compound (10 mg/kg) (compound administration group, six mice per group) or a 0.5% methyl cellulose suspension (compound non-administration group (vehicle), six mice per group) once a day for one week. The averages and the standard deviations of the body weights at the start of administration and after continuous administration for one week are shown below.

[3] = system: High fat diet-fed (HFD-fed) mice; assay: Fecal protein concentration-increasing test using HFD-fed mouse (Test Example 2-1); type: in vivo; conditions: male, 19-week old, 10 mg/kg orally, whole feces of first day of administration, average ± standard deviation, six mice
Protocol: (§1) High fat diet-fed (HFD-fed) mice (D12079B diet, male, 19-week old) were orally administered with a 0.5% methyl cellulose suspension containing a test compound (10 mg/kg) (compound administration group, six mice per group) or a 0.5% methyl cellulose suspension (compound non-administration group (vehicle), five mice per group), and whole feces were collected on the first day of administration. Dried feces were dissolved in 0.5 N NaOH, followed by centrifugation at 12,000 rpm. The protein concentration in the supernatant was then quantitatively measured (Lowry method), and the amount of protein contained in 1 g of feces was calculated as the fecal protein concentration (mg/g feces). The average and the standard deviation of each group are shown below.

[4] = system: High fat diet-fed (HFD-fed) mice; assay: Fecal protein concentration-increasing test using HFD-fed mouse (Test Example 2-2); type: in vivo; conditions: male, 47-week old, 10 mg/kg orally, whole feces of first day of administration, average ± standard deviation, five mice
Protocol: as §1, with “47-week” for “19-week”, “five” for “six”, “was” for “was then”

| Compound | inhibition at 3.3 µM [1] [%] | other results |
| --- | --- | --- |
| N=C(N)Nc1ccc2c(c1)CCCOc1c(cccc1C(=O)N[C@@H](CC(=O)O)C(=O)O)OC2=O [Example 3, N-((10-Carbamimidamido-13-oxo-6,7,8,13-tetrahydrodibenzo[b,f][1,4]dioxecin-4-yl)carbonyl)aspartic acid] |  | 3.3 μM Inhibition [1]: 101%; Body Weight (g) After continuous administration for one week ([2]; 10 mg/kg orally once a day for one week): 41.4 ± 2.2 g; Body Weight (g) Start of administration ([2]; group given 10 mg/kg orally once a day, baseline): 44.5 ± 2.2 g; Fecal protein concentration (mg/g feces) [3]: 233.3 ± 35.9 mg/g feces |
| COc1ccc(C[C@@H](C(=O)O)N(CC(=O)O)C(=O)c2cccc3c2OCCCc2cc(NC(=N)N)ccc2C(=O)O3)cc1 [Example 94, N-((10-Carbamimidamido-13-oxo-6,7,8,13-tetrahydrodibenzo[b,f][1,4]dioxecin-4-yl)carbonyl)-N-(carboxymethyl)-O-methyl-L-tyrosine] | 101 | Fecal protein concentration (mg/g feces) [4]: 201.0 ± 21.8 mg/g feces |
| N=C(N)Nc1ccc2c(c1)CCCOc1c(cccc1C(=O)N(CCN(CC(=O)O)CC(=O)O)CC(=O)O)OC2=O [Example 120, N-(2-(Bis(carboxymethyl)amino)ethyl)-N-((10-carbamimidamido-13-oxo-6,7,8,13-tetrahydrodibenzo[b,f][1,4]dioxecin-4-yl)carbonyl)glycine] | 101 | Fecal protein concentration (mg/g feces) [4]: 194.6 ± 48.1 mg/g feces |
| N=C(N)Nc1ccc2c(c1)CCCOc1c(cccc1C(=O)N(CC(=O)O)[C@@H](Cc1ccc(OCCN(CC(=O)O)Cc3ccccc3)cc1)C(=O)O)OC2=O [Example 122, O-(2-(Benzyl(carboxymethyl)amino)ethyl)-N-((10-carbamimidamido-13-oxo-6,7,8,13-tetrahydrodibenzo[b,f][1,4]dioxecin-4-yl)carbonyl)-N-(carboxymethyl)-L-tyrosine] | 101 | Fecal protein concentration (mg/g feces) [4]: 165.4 ± 16.2 mg/g feces |
| N=C(N)Nc1ccc2c(c1)CCCOc1c(cccc1C(=O)N(CCC(=O)O)Cc1cccc(C(=O)O)c1)OC2=O [Example 134, 3-((((10-carbamimidamido-13-oxo-6,7,8,13-tetrahydro-dibenzo[b,f] [1,4]dioxecin-4-yl)carbonyl)(2-carboxyethyl)amino)methyl)benzoic acid] | 100 |  |
| C[C@@H](C(=O)O)N(Cc1cccc(C(=O)O)c1)C(=O)c1cccc2c1OCCCc1cc(NC(=N)N)ccc1C(=O)O2 [Example 135, 3-((((10-Carbamimidamido-13-oxo-6,7,8,13-tetrahydrodibenzo[b,f][1,4]dioxecin-4-yl)carbonyl) ((1S)-1-carboxyethyl)amino)methyl)benzoic acid] | 100 |  |
| N=C(N)Nc1ccc2c(c1)CCCOc1c(cccc1C(=O)N(Cc1cccc(C(=O)O)c1)[C@@H](CC(=O)O)C(=O)O)OC2=O [Example 136, N-((10-Carbamimidamido-13-oxo-6,7,8,13-tetrahydrodibenzo[b,f][1,4]dioxecin-4-yl)carbonyl)-N-(3-carboxybenzyl)-L-aspartic acid] | 100 | Fecal protein concentration (mg/g feces) [4]: 274.3 ± 74.6 mg/g feces |
| N=C(N)Nc1ccc2c(c1)CCCOc1c(cccc1C(=O)N(CCOCc1ccccc1)C(CC(=O)O)C(=O)O)OC2=O (centres unmarked) [Example 137] | 100 |  |
| N=C(N)Nc1ccc2c(c1)CCCOc1c(cccc1C(=O)N(CCC(=O)O)[C@@H](CC(=O)O)C(=O)O)OC2=O [Example 138, N-((10-carbamimidamido-13-oxo-6,7,8,13-tetrahydro-dibenzo[b,f] [1,4]dioxecin-4-yl)carbonyl)-N-(2-carboxyethyl)-L-aspartic acid] | 100 |  |
| COC(=O)CN(C(=O)c1cccc2c1OCCCc1cc(NC(=N)N)ccc1C(=O)O2)[C@@H](CC(=O)O)C(=O)O [Example 139, N-((10-carbamimidamido-13-oxo-6,7,8,13-tetrahydro-dibenzo[b,f] [1,4]dioxecin-4-yl)carbonyl)-N-(2-methoxy-2-oxoethyl)-L-aspartic acid] | 100 |  |
| N=C(N)Nc1ccc2c(c1)CCCOc1c(cccc1C(=O)N(CC(=O)O)CC(=O)N(CC(=O)O)Cc1ccccc1)OC2=O [Example 140, N-((10-Carbamimidamido-13-oxo-6,7,8,13-tetrahydrodibenzo[b,f][1,4]dioxecin-4-yl)carbonyl)-N-(carboxymethyl)glycyl-N-benzylglycine] | 100 |  |
| N=C(N)Nc1ccc2c(c1)CCCOc1c(cccc1C(=O)N(CC(=O)O)CC(=O)N(CC(=O)O)Cc1cccc(C(=O)O)c1)OC2=O [Example 141, N-((10-Carbamimidamido-13-oxo-6,7,8,13-tetrahydrodibenzo[b,f][1,4]dioxecin-4-yl)carbonyl)-N-(carboxymethyl)glycyl-N-(3-carboxybenzyl)glycine] | 100 |  |
| N=C(N)Nc1ccc2c(c1)CCCOc1c(cccc1C(=O)N(CC(=O)O)Cc1ccc(CC(=O)O)cc1)OC2=O [Example 142, N-((10-carbamimidamido-13-oxo-6,7,8,13-tetrahydro-dibenzo[b,f] [1,4]dioxecin-4-yl)carbonyl)-N-(4-(carboxymethyl)benzyl)glycine] | 98 |  |
| N=C(N)Nc1ccc2c(c1)CCCOc1c(cccc1C(=O)N(Cc1ccc(C(=O)O)cc1)[C@@H](CC(=O)O)C(=O)O)OC2=O [Example 143, N-((10-Carbamimidamido-13-oxo-6,7,8,13-tetrahydrodibenzo[b,f][1,4]dioxecin-4-yl)carbonyl)-N-(4-carboxybenzyl)-L-aspartic acid] | 100 |  |
| N=C(N)Nc1ccc2c(c1)CCCOc1c(cccc1C(=O)N(Cc1cccc(C(=O)O)c1)C(CC(=O)O)CC(=O)O)OC2=O [Example 144, 3-(((10-Carbamimidamido-13-oxo-6,7,8,13-tetrahydrodibenzo[b,f][1,4]dioxecin-4-yl)carbonyl) (3-carboxybenzyl)amino)pentanedioic acid] | 99 |  |
| N=C(N)Nc1ccc2c(c1)CCCOc1c(ccc(CCC(=O)O)c1C(=O)N(CC(=O)O)Cc1cccc(C(=O)O)c1)OC2=O [Example 145, 3-((((10-Carbamimidamido-3-(2-carboxyethyl)-13-oxo-6,7,8,13-tetrahydrodibenzo[b,f][1,4]dioxecin-4-yl)carbonyl) (carboxymethyl)amino)methyl)benzoic acid] | 99 | Fecal protein concentration (mg/g feces) [4]: 201.3 ± 45.3 mg/g feces |
| N=C(N)Nc1ccc2c(c1)CCCOc1c(cccc1C(=O)N(CC(=O)O)Cc1cc(C(=O)O)cc(C(=O)O)c1)OC2=O [Example 146, 5-((((10-carbamimidamido-13-oxo-6,7,8,13-tetrahydro-dibenzo[b,f] [1,4]dioxecin-4-yl)carbonyl)-(carboxy-methyl)-amino)methyl) isophthalic acid] | 102 |  |
| N=C(N)Nc1ccc2c(c1)CCCOc1c(cccc1C(=O)N(Cc1ccc(C(=O)O)cc1)C(CC(=O)O)CC(=O)O)OC2=O [Example 147, 3-(((10-carbamimidamido-13-oxo-6,7,8,13-tetrahydro-dibenzo[b,f] [1,4]dioxecin-4-yl)carbonyl)(4-carboxybenzyl)amino)penta-nedioic acid] | 100 |  |
| N=C(N)Nc1ccc2c(c1)CCCOc1c(ccc(CCC(=O)O)c1C(=O)N(CC(=O)O)Cc1cccc(CN(CC(=O)O)CC(=O)O)c1)OC2=O [Example 148, 3-(4-((3-((bis(carboxymethyl)amino)methyl)-benzyl) (carboxymethyl)carbamoyl)-10-carbamimidamido-13-oxo-6,7,8,13-tetrahydro-dibenzo[b,f] [1,4]dioxecin-3-yl)propanoic acid] | 101 |  |
| N=C(N)Nc1ccc2c(c1)CCCOc1c(ccc(CCC(=O)O)c1C(=O)N(CCN(CC(=O)O)CC(=O)O)CC(=O)O)OC2=O [Example 149] | 101 |  |
| diethyl (4-(((10- carbamimidamido- 13-oxo-6,7,8,13- tetrahydro- dibenzo[b,f] [1,4]dioxecin-4- yl)carbonyl)amino) benzyl)phosphorate [Example 4] |  | 3.3 μM Inhibition [1]: 98% |
